pIC50, pKd: −log10 of the molar value. Where “and” joins values, the source holds several entries; their conditions need not be identical. Identical values can stand only once. Like-named read-outs stand apart in the source and are kept apart here.
Columns and labels:
[1] = tested on: U251-EGFRvIII cells; test: Viability/proliferation of U251-EGFRvIII cells; assay type: cell-based, human
Method: Cells were seeded in 96-well plates at a density of 1,000 cells per well and treated with two-fold serial dilutions of compounds with a starting concentration of 20 μM. Cell viability was assessed after three days of treatment by CellTiter-Glo (Promega). Curve fitting analysis and IC50 value determination were performed using GraphPad Prism 8.
In parallel, the conventional human GBM U251 cell line was used as a surrogate model for both in vitro and in vivo studies. U251 cells were engineered to stably express EGFRvIII (U251-EGFRvIII) via retroviral-mediated gene transfer.

[2] = Brain and plasma exposure after 5 hour intravenous infusion; assay type: in vivo, Sprague Dawley rats; conditions: for Kp at 5 h / concentration at 5 h / concentration at 0.083 h / concentration at 1 h / concentration at 2 h / concentration at 3 h: 3 mg/kg
Method: A single IV infustion for 5 hours was administered to each animal, which were then twice observed clinically (30 minutes to 1 hour post-posing and at the end of the study (TTerminal). Blood samples were collected at 5 time points from each animal over the 5 hour infusion period (5 minutes, 1 hour, 2, hours, 3 hours and TTerminal) and processed to plasma. Brains were collected at Tterminal (blotted, weighed, and snap frozen) and brain exposure was compared. […]

[3] = molecular target: EGFR (Homo sapiens, UniProt P00533); test: Kinase binding constant (Kd)
EGFR, sequence (P00533 25-1210): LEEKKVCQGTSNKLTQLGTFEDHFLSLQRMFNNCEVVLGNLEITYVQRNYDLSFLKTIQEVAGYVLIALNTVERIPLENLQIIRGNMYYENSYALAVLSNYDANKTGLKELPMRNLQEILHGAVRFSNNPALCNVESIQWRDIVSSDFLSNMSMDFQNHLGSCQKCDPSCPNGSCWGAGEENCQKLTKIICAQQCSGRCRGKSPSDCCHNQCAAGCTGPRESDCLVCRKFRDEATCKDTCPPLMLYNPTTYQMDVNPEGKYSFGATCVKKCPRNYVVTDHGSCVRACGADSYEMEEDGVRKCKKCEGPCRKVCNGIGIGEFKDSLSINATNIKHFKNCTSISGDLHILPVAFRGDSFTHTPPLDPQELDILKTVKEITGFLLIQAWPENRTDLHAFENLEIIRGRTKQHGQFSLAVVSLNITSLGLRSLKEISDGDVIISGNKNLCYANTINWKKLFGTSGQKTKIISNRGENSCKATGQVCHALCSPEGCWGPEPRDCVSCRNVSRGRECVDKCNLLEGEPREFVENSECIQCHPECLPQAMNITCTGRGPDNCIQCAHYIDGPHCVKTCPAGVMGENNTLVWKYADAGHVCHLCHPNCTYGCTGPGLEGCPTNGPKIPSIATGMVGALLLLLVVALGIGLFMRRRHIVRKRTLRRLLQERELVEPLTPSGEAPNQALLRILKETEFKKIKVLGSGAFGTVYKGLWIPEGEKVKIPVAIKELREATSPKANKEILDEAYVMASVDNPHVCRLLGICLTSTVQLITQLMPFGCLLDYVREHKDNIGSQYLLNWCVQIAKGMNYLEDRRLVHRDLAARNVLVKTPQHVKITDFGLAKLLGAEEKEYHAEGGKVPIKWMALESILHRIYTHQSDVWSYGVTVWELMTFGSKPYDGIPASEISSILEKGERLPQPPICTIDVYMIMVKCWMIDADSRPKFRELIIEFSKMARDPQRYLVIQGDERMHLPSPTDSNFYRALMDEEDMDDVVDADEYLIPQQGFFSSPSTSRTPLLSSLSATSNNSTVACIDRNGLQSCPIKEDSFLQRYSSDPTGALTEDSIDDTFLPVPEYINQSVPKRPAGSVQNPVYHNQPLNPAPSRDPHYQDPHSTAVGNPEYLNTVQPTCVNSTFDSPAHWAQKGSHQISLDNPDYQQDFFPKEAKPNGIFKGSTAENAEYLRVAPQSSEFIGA
Source text: (§1) EGFR amplifications and/or mutations are common in GBM, estimated to occur in over 50% of patients.

[4] = molecular target: EGFR(G719C) (Homo sapiens, UniProt P00533, G719C); test: Kinase binding constant (Kd)
Source text: as §1

[5] = molecular target: EGFR(G719S) (Homo sapiens, UniProt P00533, G719S); test: Kinase binding constant (Kd)
Source text: as §1

[6] = molecular target: EGFR(L747-E749del, A750P) (Homo sapiens, UniProt P00533, A750P/DEL747-749); test: Kinase binding constant (Kd)
Source text: as §1

[7] = molecular target: EGFR(L747-S752del, P753S) (Homo sapiens, UniProt P00533, DEL747-752/P753S); test: Kinase binding constant (Kd)
Source text: as §1

[8] = molecular target: EGFR(L858R) (Homo sapiens, UniProt P00533, L858R); test: Kinase binding constant (Kd)
EGFR(L858R), sequence (P00533 25-1210 L858R): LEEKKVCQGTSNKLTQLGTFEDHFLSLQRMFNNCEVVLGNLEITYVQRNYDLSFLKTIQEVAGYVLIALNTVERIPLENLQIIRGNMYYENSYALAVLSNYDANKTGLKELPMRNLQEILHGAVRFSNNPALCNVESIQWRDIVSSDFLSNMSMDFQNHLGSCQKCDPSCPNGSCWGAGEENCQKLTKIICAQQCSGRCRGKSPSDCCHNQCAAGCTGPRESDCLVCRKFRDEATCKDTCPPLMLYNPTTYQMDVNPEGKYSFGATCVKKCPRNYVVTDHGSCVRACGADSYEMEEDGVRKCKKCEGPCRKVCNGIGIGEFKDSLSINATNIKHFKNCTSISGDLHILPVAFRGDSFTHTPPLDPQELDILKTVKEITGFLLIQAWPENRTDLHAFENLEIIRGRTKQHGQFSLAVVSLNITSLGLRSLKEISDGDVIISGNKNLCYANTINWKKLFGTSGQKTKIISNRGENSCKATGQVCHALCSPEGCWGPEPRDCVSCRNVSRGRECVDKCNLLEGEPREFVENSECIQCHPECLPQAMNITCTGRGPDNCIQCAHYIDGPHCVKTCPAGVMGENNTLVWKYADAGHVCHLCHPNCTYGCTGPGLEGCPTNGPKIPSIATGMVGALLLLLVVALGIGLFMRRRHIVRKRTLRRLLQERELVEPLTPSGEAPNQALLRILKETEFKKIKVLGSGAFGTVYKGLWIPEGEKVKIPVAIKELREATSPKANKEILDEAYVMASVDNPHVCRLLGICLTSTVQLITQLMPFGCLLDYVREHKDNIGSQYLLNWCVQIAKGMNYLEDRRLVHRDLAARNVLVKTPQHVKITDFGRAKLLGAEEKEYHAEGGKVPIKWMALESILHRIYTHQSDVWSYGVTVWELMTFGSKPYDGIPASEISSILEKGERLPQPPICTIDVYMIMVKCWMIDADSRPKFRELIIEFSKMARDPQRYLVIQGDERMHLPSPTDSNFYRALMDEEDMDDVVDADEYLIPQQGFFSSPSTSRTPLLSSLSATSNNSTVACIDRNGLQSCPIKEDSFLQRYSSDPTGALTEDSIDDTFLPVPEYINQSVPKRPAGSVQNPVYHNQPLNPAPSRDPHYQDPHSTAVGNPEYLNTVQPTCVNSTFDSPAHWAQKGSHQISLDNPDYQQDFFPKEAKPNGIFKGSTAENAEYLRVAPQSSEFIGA
Source text: as §1

[9] = molecular target: EGFR(L858R,T790M) (Homo sapiens, UniProt P00533, L858R/T790M); test: Kinase binding constant (Kd)
Source text: as §1

[10] = molecular target: EGFR(L861Q) (Homo sapiens, UniProt P00533, L861Q); test: Kinase binding constant (Kd)
Source text: as §1

[11] = molecular target: EGFR(S752-I759del) (Homo sapiens, UniProt P00533, DEL752-759); test: Kinase binding constant (Kd)
Source text: as §1

[12] = molecular target: EGFR(T790M) (Homo sapiens, UniProt P00533, T790M); test: Kinase binding constant (Kd)
EGFR(T790M), sequence (P00533 25-1210 T790M): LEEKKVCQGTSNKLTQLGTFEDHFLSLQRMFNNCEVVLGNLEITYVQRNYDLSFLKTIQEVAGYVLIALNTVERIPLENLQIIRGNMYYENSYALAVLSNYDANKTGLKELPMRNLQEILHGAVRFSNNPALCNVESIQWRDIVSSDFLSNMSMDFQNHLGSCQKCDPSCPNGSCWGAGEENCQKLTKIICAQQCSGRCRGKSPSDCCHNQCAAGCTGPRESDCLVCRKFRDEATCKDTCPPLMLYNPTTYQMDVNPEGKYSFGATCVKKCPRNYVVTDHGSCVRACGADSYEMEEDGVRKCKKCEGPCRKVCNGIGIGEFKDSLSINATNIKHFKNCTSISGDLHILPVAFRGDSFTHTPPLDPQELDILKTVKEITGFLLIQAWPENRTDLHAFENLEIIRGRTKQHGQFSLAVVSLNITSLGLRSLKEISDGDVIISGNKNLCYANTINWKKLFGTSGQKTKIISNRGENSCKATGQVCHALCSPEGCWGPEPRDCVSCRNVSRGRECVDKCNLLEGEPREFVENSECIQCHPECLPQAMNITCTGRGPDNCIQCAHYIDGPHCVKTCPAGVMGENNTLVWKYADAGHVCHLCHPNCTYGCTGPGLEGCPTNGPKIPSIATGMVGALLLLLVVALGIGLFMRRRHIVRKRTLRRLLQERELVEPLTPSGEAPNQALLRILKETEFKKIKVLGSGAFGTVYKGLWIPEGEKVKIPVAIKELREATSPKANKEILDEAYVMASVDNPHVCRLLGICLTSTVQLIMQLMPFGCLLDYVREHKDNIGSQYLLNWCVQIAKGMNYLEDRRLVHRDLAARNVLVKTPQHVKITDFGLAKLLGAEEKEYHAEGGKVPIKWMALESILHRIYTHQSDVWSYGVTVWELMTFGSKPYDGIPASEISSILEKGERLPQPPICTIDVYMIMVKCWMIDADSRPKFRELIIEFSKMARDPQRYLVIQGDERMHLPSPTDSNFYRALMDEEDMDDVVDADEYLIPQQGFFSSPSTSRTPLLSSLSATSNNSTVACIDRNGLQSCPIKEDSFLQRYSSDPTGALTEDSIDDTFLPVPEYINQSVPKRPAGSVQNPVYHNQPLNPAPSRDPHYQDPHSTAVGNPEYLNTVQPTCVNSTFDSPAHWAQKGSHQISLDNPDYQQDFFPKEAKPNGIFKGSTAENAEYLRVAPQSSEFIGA
Source text: as §1

[13] = molecular target: ERBB2 (Homo sapiens, UniProt P04626); test: Kinase binding constant (Kd)
ERBB2, sequence (P04626 23-1255): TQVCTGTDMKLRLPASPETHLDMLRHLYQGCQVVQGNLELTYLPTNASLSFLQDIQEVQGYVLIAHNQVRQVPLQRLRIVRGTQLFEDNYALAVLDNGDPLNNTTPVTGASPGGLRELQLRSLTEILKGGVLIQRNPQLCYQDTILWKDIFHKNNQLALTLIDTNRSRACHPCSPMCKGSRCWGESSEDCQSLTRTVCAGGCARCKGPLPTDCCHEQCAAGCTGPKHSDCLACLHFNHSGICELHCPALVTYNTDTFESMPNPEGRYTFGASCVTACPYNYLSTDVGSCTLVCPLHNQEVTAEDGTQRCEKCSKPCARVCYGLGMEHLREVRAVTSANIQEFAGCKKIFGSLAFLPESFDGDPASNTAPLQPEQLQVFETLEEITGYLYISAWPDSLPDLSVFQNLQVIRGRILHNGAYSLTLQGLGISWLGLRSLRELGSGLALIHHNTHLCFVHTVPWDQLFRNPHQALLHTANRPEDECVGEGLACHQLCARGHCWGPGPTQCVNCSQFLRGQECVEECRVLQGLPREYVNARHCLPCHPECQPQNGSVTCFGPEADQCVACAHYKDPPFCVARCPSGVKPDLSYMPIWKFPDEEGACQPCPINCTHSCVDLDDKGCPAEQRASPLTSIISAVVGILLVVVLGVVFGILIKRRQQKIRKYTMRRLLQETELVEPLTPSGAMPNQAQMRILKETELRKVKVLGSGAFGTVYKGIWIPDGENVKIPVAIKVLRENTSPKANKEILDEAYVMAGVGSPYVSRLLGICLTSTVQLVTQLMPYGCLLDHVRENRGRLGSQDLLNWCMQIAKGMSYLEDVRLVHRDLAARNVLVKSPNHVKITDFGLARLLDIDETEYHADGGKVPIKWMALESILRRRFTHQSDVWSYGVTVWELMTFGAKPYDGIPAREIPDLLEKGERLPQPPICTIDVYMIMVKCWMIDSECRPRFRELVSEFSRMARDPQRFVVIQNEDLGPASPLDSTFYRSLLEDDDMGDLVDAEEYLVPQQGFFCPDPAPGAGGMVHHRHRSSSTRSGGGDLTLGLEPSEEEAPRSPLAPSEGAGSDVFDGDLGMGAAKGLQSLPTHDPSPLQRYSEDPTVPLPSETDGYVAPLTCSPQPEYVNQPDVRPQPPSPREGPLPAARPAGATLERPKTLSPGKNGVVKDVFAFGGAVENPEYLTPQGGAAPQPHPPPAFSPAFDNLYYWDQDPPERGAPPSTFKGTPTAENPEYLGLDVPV
Source text: as §1

[14] = molecular target: ERBB4 (Homo sapiens, UniProt Q15303); test: Kinase binding constant (Kd)
Source text: as §1

[15] = CNS functional observational battery; assay type: in vivo; conditions: rat, PO up to 100 mg/kg
[16] = Comparative metabolism and metabolic stability in hepatocytes; assay type: in vitro ADME, human, monkey, dog, rat and mouse
Source text: Compound 2 was a major demethylated active metabolite in all species and with the exception of a minor metabolite, M48 in human hepatocytes, all human metabolites were represented in the rat and/or dog, the toxicology species.

[17] = Oral rat dose-range toxicity study; assay type: in vivo
Method: Male and female Sprague-Dawley rats were given Compound 1 orally by gavage either once (30, 100, 500, 1000 mg/kg/day) or once daily for up to 14 days (30, 100, 300 mg/kg/day). […] […]; this group was terminated on Day 9. […] The STD10 was estimated to be 100 mg/kg/day in this study.

[18] = molecular target: EGFRvIII (Homo sapiens, UniProt P00533, DELINS30-297G); test: EGFRvIII phosphorylation in 293-EGFRvIII cells (western blot); assay type: cell-based; parameters: expressed in transfected cells; conditions: 6 hours, read-out: IC50 on EGFRvIII phosphorylation (pEGFRvIII1068)
[19] = tested on: BT179 cells; test: Cell viability, patient-derived GBM line BT179; conditions: Homo sapiens, 72 h
Method: (§2) Primary human glioblastoma lines BT112, BT179 and BT333 were maintained in NeuroCult proliferation medium (human) (StemCell Technologies) with 20 ng/ml EGF, 10 ng/ml FGF and 0.0002% Heparin.

[20] = tested on: BT333 cells; test: Cell viability, patient-derived GBM line BT333; conditions: Homo sapiens, 72 h
Method: as §2

[21] = 3 mg/kg IV infusion over 5 h, 5 h, individual animal, Compound 2 as metabolite in Compound 1-dosed rats
[22] = Sprague Dawley, rat, brain, other: continuous intravenous infusion and oral dosing, rat, estimated steady state by continuous intravenous infusion and oral dosing, read-out: whole brain exposure relative to plasma

Question: With C=CC(=O)Nc1cc(Nc2nccc(-n3ccc4cccnc43)n2)c(OC)cc1N(C)CCN(C)C [Compound 1, N-(5-((4-(1H-pyrrolo[2,3-b]pyridin-1-yl)pyrimidin-2-yl)amino)-2-((2-(dimethylamino)ethyl)(methyl)amino)-4-methoxyphenyl)acrylamide] as the compound, how does the pIC50 ([1]; Homo sapiens, values of the text and Table 9, read-out: IC50, viability of U251-EGFRvIII cells) read?
Answer: 5.82

Question: What about the pIC50 ([1]; Homo sapiens, Table 2, read-out: IC50 on U251-EGFRvIII cell proliferation) of the same compound?
Answer: 5.83

Question: And the “cell survival, fold less than that of erlotinib” value ([1]; U251-EGFRvIII cells)?
Answer: 9 fold

Question: And the “cell survival, fold less than that of gefitinib” value ([1]; U251-EGFRvIII cells)?
Answer: 13 fold

Question: What about the pIC50 ([1]; values of the text and Table 9, read-out: IC50, viability of U251-EGFRvIII cells) of the same compound?
Answer: 5.82

Question: What about the “Plasma Concentration” value ([2]; 3 mg/kg IV infusion over 5 h, 0.083 h, individual animal, Compound 2 as metabolite in Compound 1-dosed rats) of the same compound?
Answer: 14.2 ng/mL and 13.5 ng/mL and 12.8 ng/mL and 13.1 ng/mL and 11.3 ng/mL and 14.3 ng/mL

Question: And the “Plasma Concentration” value ([2]; 3 mg/kg IV infusion over 5 h, 1 h, individual animal, Compound 2 as metabolite in Compound 1-dosed rats)?
Answer: 63.5 ng/mL and 54.8 ng/mL and 59.6 ng/mL and 44.2 ng/mL and 51.1 ng/mL and 63.0 ng/mL

Question: What about the “Plasma Concentration” value ([2]; 3 mg/kg IV infusion over 5 h, 2 h, individual animal, Compound 2 as metabolite in Compound 1-dosed rats) of the same compound?
Answer: 93.4 ng/mL and 84.2 ng/mL and 81.6 ng/mL and 70.7 ng/mL and 71.9 ng/mL and 70.1 ng/mL

Question: What about the “Plasma Concentration” value ([2]; 3 mg/kg IV infusion over 5 h, 3 h, individual animal, Compound 2 as metabolite in Compound 1-dosed rats) of the same compound?
Answer: 95.5 ng/mL and 93.7 ng/mL and 106 ng/mL and 89.5 ng/mL and 94.7 ng/mL and 120 ng/mL

Question: What about the “Brain Tissue Concentration” value [2, 21] of the same compound?
Answer: 2380 ng/g and 2400 ng/g and 2020 ng/g and 2000 ng/g and 1980 ng/g and 2640 ng/g

Question: And the “Brain/Plasma (ratios)” value [2, 21]?
Answer: 18.5 and 20.5 and 18.2

Question: What about the “Plasma Concentration” value [2, 21] of the same compound?
Answer: 107 ng/mL and 120 ng/mL and 109 ng/mL and 97.4 ng/mL and 119 ng/mL

Question: And the Kp at 5 h [2, 22]?
Answer: > 20

Question: And the Kp [2, 22]?
Answer: 20

Question: And the concentration at 5 h ([2]; male, Sprague Dawley, rat, brain, intravenous, 3 mg/kg IV infusion over 5 h, 5 h, individual animal, Compound 2 as metabolite in Compound 1-dosed rats, read-out: Brain Tissue Concentration)?
Answer: 2640 ng/g

Question: And the concentration at 5 h ([2]; male, Sprague Dawley, rat, brain, intravenous, 3 mg/kg IV infusion over 5 h, 5 h, mean n=6, Compound 2 as metabolite, read-out: Brain Tissue Concentration)?
Answer: 2240 ng/g

Question: What about the Kp at 5 h ([2]; male, Sprague Dawley, rat, brain, intravenous, rats with continuous infusion, read-out: brain/plasma ratio) of the same compound?
Answer: ~20

Question: And the Kp at 5 h ([2]; male, Sprague Dawley, rat, brain, iv, 3 mg/kg IV infusion over 5 h, 5 h, individual animal, Compound 2 as metabolite in Compound 1-dosed rats, read-out: Brain/Plasma (ratios))?
Answer: 22.2

Question: And the Kp at 5 h ([2]; male, Sprague Dawley, rat, brain, iv, 3 mg/kg IV infusion over 5 h, 5 h, mean n=6, Compound 2 as metabolite, read-out: Brain/Plasma (ratios))?
Answer: 20.3

Question: And the concentration at 0.083 h ([2]; male, Sprague Dawley, rat, plasma, intravenous, 3 mg/kg IV infusion over 5 h, 0.083 h, individual animal, Compound 2 as metabolite in Compound 1-dosed rats)?
Answer: 14.3 ng/mL

Question: What about the concentration at 0.083 h ([2]; male, Sprague Dawley, rat, plasma, intravenous, 3 mg/kg IV infusion over 5 h, 0.083 h, mean n=6, Compound 2 as metabolite) of the same compound?
Answer: 13.2 ng/mL

Question: What about the concentration at 1 h ([2]; male, Sprague Dawley, rat, plasma, intravenous, 3 mg/kg IV infusion over 5 h, 1 h, individual animal, Compound 2 as metabolite in Compound 1-dosed rats) of the same compound?
Answer: 63 ng/mL

Question: What about the concentration at 1 h ([2]; male, Sprague Dawley, rat, plasma, intravenous, 3 mg/kg IV infusion over 5 h, 1 h, mean n=6, Compound 2 as metabolite) of the same compound?
Answer: 56 ng/mL

Question: What about the concentration at 2 h ([2]; male, Sprague Dawley, rat, plasma, intravenous, 3 mg/kg IV infusion over 5 h, 2 h, individual animal, Compound 2 as metabolite in Compound 1-dosed rats) of the same compound?
Answer: 70.1 ng/mL

Question: And the concentration at 2 h ([2]; male, Sprague Dawley, rat, plasma, intravenous, 3 mg/kg IV infusion over 5 h, 2 h, mean n=6, Compound 2 as metabolite)?
Answer: 78.7 ng/mL

Question: And the concentration at 3 h ([2]; male, Sprague Dawley, rat, plasma, intravenous, 3 mg/kg IV infusion over 5 h, 3 h, individual animal, Compound 2 as metabolite in Compound 1-dosed rats)?
Answer: 120 ng/mL

Question: What about the concentration at 3 h ([2]; male, Sprague Dawley, rat, plasma, intravenous, 3 mg/kg IV infusion over 5 h, 3 h, mean n=6, Compound 2 as metabolite) of the same compound?
Answer: 99.9 ng/mL

Question: And the concentration at 5 h ([2]; male, Sprague Dawley, rat, plasma, intravenous, 3 mg/kg IV infusion over 5 h, 5 h, individual animal, Compound 2 as metabolite in Compound 1-dosed rats, read-out: Plasma Concentration)?
Answer: 119 ng/mL

Question: And the concentration at 5 h ([2]; male, Sprague Dawley, rat, plasma, intravenous, 3 mg/kg IV infusion over 5 h, 5 h, mean n=6, Compound 2 as metabolite, read-out: Plasma Concentration)?
Answer: 110 ng/mL

Question: And the “Brain Penetration (% of B/P ratio in preclinical model)” value ([2]; own data, infusion in rats)?
Answer: 2000% (infusion)

Question: And the “activity against wild-type EGFR” value [3]?
Answer: little activity

Question: And the pKd ([3]; EGFR wild type)?
Answer: 8.31

Question: What about the pKd [4] of the same compound?
Answer: 8.66

Question: What about the pKd [5] of the same compound?
Answer: 8.77

Question: And the pKd [6]?
Answer: 9.01

Question: And the pKd [7]?
Answer: 8.51

Question: And the pKd [8]?
Answer: 8.34

Question: What about the pKd [9] of the same compound?
Answer: 9.96

Question: What about the pKd [10] of the same compound?
Answer: 8.41

Question: What about the pKd [11] of the same compound?
Answer: 8.54

Question: What about the pKd [12] of the same compound?
Answer: 9.82

Question: And the pKd [13]?
Answer: 7.96

Question: And the pKd [14]?
Answer: 7.96

Question: And the “CNS effects in functional observational battery” value [15]?
Answer: no adverse CNS effects

Question: What about the metabolic stability ([16]; hepatocytes, species comparison) of the same compound?
Answer: greatest in human hepatocytes

Question: And the “number of metabolites detected in hepatocytes” value ([16]; human, monkey, dog, rat and/or mouse hepatocytes)?
Answer: 22

Question: And the “tolerability of a single oral dose” value ([17]; 30 to 1000 mg/kg)?
Answer: well tolerated

Question: What about the “toxicity at 30 mg/kg/day” value ([17]; 14 days) of the same compound?
Answer: No significant toxicity

Question: What about the STD10 ([17]; up to 14 days oral, estimated) of the same compound?
Answer: 100 mg/kg/day

Question: What about the pIC50 [18] of the same compound?
Answer: 6.72

Question: What about the pIC50 [19] of the same compound?
Answer: 6.05

Question: What about the pIC50 [20] of the same compound?
Answer: 5.48
